This series is described as follows: logP determination by HPLC (EEC Directive 79/831 Annex V. A8). Conditions: HPLC, gradient method, acetonitrile/0.1% aqueous phosphoric acid.
For the compound `CC(Nc1c(-c2c(F)cc(F)cc2F)c(Cl)nc2nc(N(C)C)nn12)C(F)(F)F` (stereo not shown) [Example 3], the log.P is given as 3.52. The figure for `CC(C)NNc1c(-c2c(F)cc(F)cc2F)c(Cl)nc2nc(N(C)C)nn12` [Example 4] is 3.33; for `Fc1cc(F)c(-c2c(Cl)nc3nc(Cl)nn3c2N2CCOCC2)c(F)c1` [Example 5] it is 2.99; for `CC1CN(c2c(-c3c(F)cc(F)cc3F)c(Cl)nc3nc(Cl)nn23)CC(C)O1` (stereo not shown) [Example 6] it is 3.72.

`CCNc1c(-c2c(F)cc(F)cc2F)c(Cl)nc2nc(Cl)nn12` [Example 7] showed a log.P of 3.07. The result for `Fc1cc(F)c(-c2c(Cl)nc3nc(Cl)nn3c2N2CCCC2)c(F)c1` [Example 8] reads 3.46.

In turn, `CCN(CC)c1c(-c2c(F)cc(F)cc2F)c(Cl)nc2nc(Cl)nn12` [Example 9] registered a log.P of 3.85. The figure for `CCCNc1c(-c2c(F)cc(F)cc2F)c(Cl)nc2nc(Cl)nn12` [Example 10] is 3.37; for `Fc1cc(F)c(-c2c(Cl)nc3nc(Cl)nn3c2NC2CCCC2)c(F)c1` [Example 11] it is 3.9; for `COCCNc1c(-c2c(F)cc(F)cc2F)c(Cl)nc2nc(Cl)nn12` [Example 12] it is 2.91. The result for `CNc1c(-c2c(F)cc(F)cc2F)c(Cl)nc2nc(Cl)nn12` [Example 13] reads 2.67.

Consider `Fc1cc(F)c(-c2c(Cl)nc3nc(Cl)nn3c2NC2CC2)c(F)c1` [Example 14], for which the log.P amounted to 3.1.

On to `Fc1cc(F)c(-c2c(Cl)nc3nc(Cl)nn3c2N2CCSCC2)c(F)c1` [Example 15], for which the log.P was found to be 3.68. The figure for `Fc1cc(F)c(-c2c(Cl)nc3nc(Cl)nn3c2NN2CCOCC2)c(F)c1` [Example 16] is 2.74. The figure for `CC(NNc1c(-c2ccccc2Cl)c(Cl)nc2nc(Cl)nn12)C1CC1` (stereo not shown) [Example 17] is 3.55; for `FC(F)C(F)(F)CNNc1c(-c2ccccc2Cl)c(Cl)nc2nc(Cl)nn12` [Example 18] it is 3.59. `Clc1nc2nc(Cl)c(-c3ccccc3Cl)c(NCC3CC3)n2n1` [Example 19] gave a log.P of 3.55.

In the case of `OCCNc1c(-c2ccccc2Cl)c(Cl)nc2nc(Cl)nn12` [Example 21], the log.P is 2.18. The figure for `CC(C)(C)Nc1c(-c2ccccc2Cl)c(Cl)nc2nc(Cl)nn12` [Example 22] is 3.99.

In turn, `CC(Nc1c(-c2c(F)cc(F)cc2F)c(Cl)nc2nc(Cl)nn12)C1CCCCC1` (stereo not shown) [Example 23] yielded a log.P of 4.87.

As for `OCCNc1c(-c2c(F)cc(F)cc2F)c(Cl)nc2nc(Cl)nn12` [Example 24], the log.P came out at 2.23. The figure for `CC(C)(C)Nc1c(-c2c(F)cc(F)cc2F)c(Cl)nc2nc(Cl)nn12` [Example 25] is 3.9; for `CN(C)c1c(-c2ccccc2Cl)c(Cl)nc2nc(Cl)nn12` [Example 26] it is 3.18. The compound `Clc1nc2nc(Cl)c(-c3ccccc3Cl)c(N3CCOCC3)n2n1` [Example 27] yielded a log.P of 3.03.

Consider `CC1CN(c2c(-c3ccccc3Cl)c(Cl)nc3nc(Cl)nn23)CC(C)O1` (stereo not shown) [Example 28], for which the log.P is reported as 3.81.

`CCNc1c(-c2ccccc2Cl)c(Cl)nc2nc(Cl)nn12` [Example 29] showed a log.P of 3.07. The figure for `Clc1nc2nc(Cl)c(-c3ccccc3Cl)c(N3CCCC3)n2n1` [Example 30] is 3.59; for `CCN(CC)c1c(-c2ccccc2Cl)c(Cl)nc2nc(Cl)nn12` [Example 31] it is 3.99.

`Clc1nc2nc(Cl)c(-c3ccccc3Cl)c(N3CCCCC3)n2n1` [Example 32] gave a log.P of 4.18. The figure for `CCCNc1c(-c2ccccc2Cl)c(Cl)nc2nc(Cl)nn12` [Example 33] is 3.46. As to `Clc1nc2nc(Cl)c(-c3ccccc3Cl)c(NC3CCCC3)n2n1` [Example 34], the log.P is listed as 4.03. The compound `COCCNc1c(-c2ccccc2Cl)c(Cl)nc2nc(Cl)nn12` [Example 35] registered a log.P of 2.91.

`CNc1c(-c2ccccc2Cl)c(Cl)nc2nc(Cl)nn12` [Example 36] yielded a log.P of 2.7. The result for `Clc1nc2nc(Cl)c(-c3ccccc3Cl)c(NC3CC3)n2n1` [Example 37] reads 3.18; that for `Clc1nc2nc(Cl)c(-c3ccccc3Cl)c(N3CCSCC3)n2n1` [Example 38], 3.76; that for `CN(C)Nc1c(-c2ccccc2Cl)c(Cl)nc2nc(Cl)nn12` [Example 40], 3.18. In turn, `COC(=O)N(C)Nc1c(-c2ccccc2Cl)c(Cl)nc2nc(Cl)nn12` [Example 41] registered a log.P of 2.55. Turning to `Clc1nc2nc(Cl)c(-c3ccccc3Cl)c(NC3CCCCC3)n2n1` [Example 42], the log.P is 4.32.

Compound `CC(C)Nc1c(-c2c(F)cc(F)cc2F)c(Cl)nc2nc(Br)nn12` [Example 43] gave a log.P of 3.4. The figure for `CC(C)Nc1c(-c2ccccc2Cl)c(Cl)nc2nc(Br)nn12` [Example 45] is 3.45; for `Fc1cc(F)c(-c2c(Cl)nc3nc(Cl)nn3c2N2CCC(C(F)(F)F)CC2)c(F)c1` [Example 46] it is 5. The result for `CC(C)Nc1c(-c2c(F)cc(F)cc2F)c(Cl)nc2nc(Cl)nn12` [Example 47] reads 3.36; that for `CC(C)CN(N)c1c(-c2c(F)cc(F)cc2F)c(Cl)nc2nc(Cl)nn12` [Example 48], 3.67. The figure for `Fc1cc(F)c(-c2c(Cl)nc3nc(Br)nn3c2N2CCOCC2)c(F)c1` [Example 49] is 3.03. Take `CC1CN(c2c(-c3c(F)cc(F)cc3F)c(Cl)nc3nc(Br)nn23)CC(C)O1` (stereo not shown) [Example 50]: the log.P is 3.72.

As for `CCNc1c(-c2c(F)cc(F)cc2F)c(Cl)nc2nc(Br)nn12` [Example 51], the log.P came out at 3.07. The figure for `Fc1cc(F)c(-c2c(Cl)nc3nc(Br)nn3c2N2CCCC2)c(F)c1` [Example 52] is 3.5; for `CCN(CC)c1c(-c2c(F)cc(F)cc2F)c(Cl)nc2nc(Br)nn12` [Example 53] it is 3.9; for `CCCNc1c(-c2c(F)cc(F)cc2F)c(Cl)nc2nc(Br)nn12` [Example 54] it is 3.41. The figure for `COCCNc1c(-c2c(F)cc(F)cc2F)c(Cl)nc2nc(Br)nn12` [Example 55] is 2.99; for `Fc1cc(F)c(-c2c(Cl)nc3nc(Br)nn3c2NC2CC2)c(F)c1` [Example 56] it is 3.14; for `Fc1cc(F)c(-c2c(Cl)nc3nc(Br)nn3c2NN2CCOCC2)c(F)c1` [Example 57] it is 2.77. Compound `CC(C)(C)Nc1c(-c2c(F)cc(F)cc2F)c(Cl)nc2nc(Br)nn12` [Example 58] had a log.P of 3.9. Regarding `CN(C)c1c(-c2c(F)cc(F)cc2F)c(Cl)nc2nc(Br)nn12` [Example 59], the log.P stood at 3.14.

Turning to `Fc1cc(F)c(-c2c(Cl)nc3nc(Br)nn3c2NC2CCCC2)c(F)c1` [Example 60], the log.P came to 3.94. The figure for `Fc1cc(F)c(-c2c(Cl)nc3nc(Br)nn3c2N2CCSCC2)c(F)c1` [Example 61] is 3.72. The result for `Fc1cc(F)c(-c2c(Cl)nc3nc(Br)nn3c2NCC2CC2)c(F)c1` [Example 62] reads 3.5.

`CCC(C)Nc1c(-c2c(F)cc(F)cc2F)c(Cl)nc2nc(Br)nn12` (stereo not shown) [Example 64]: the log.P worked out at 3.76. With `CC(C)CN(N)c1c(-c2c(F)cc(F)cc2F)c(Cl)nc2nc(Br)nn12` [Example 65], the log.P amounted to 3.67. With `CC(C)(Nc1c(-c2c(F)cc(F)cc2F)c(Cl)nc2nc(Cl)nn12)C(F)(F)F` [Example 66], the log.P was 3.28. The result for `Fc1cc(F)c(-c2c(Cl)nc3nc(Cl)nn3c2N2CCCCC2C(F)(F)F)c(F)c1` (stereo not shown) [Example 67] reads 3.28.

Compound `CON(C)c1c(-c2c(F)cc(F)cc2F)c(Cl)nc2nc(Br)nn12` [Example 68] registered a log.P of 3.39.

`CCC(C)CNc1c(-c2c(F)cc(F)cc2F)c(Cl)nc2nc(Cl)nn12` (stereo not shown) [Example 69] came in with a log.P of 4.04. The figure for `CCC(C)Nc1c(-c2ccccc2Cl)c(Cl)nc2nc(Cl)nn12` (stereo not shown) [Example 70] is 3.79. Consider `CON(C)c1c(-c2c(F)cc(F)cc2F)c(Cl)nc2nc(Cl)nn12` [Example 71], for which the log.P stood at 3.36. Turning to `CC1=CCCN(c2c(-c3c(F)cc(F)cc3F)c(Cl)nc3nc(Br)nn23)C1` [Example 72], the log.P stood at 4.19. `CCC(C)CNc1c(-c2c(F)cc(F)cc2F)c(Cl)nc2nc(Br)nn12` (stereo not shown) [Example 73] displayed a log.P of 4.05. The figure for `CCC(C)Nc1c(-c2c(F)cc(F)cc2F)c(Cl)nc2nc(Cl)nn12` (stereo not shown) [Example 74] is 3.7; for `CCN(CCOC)c1c(-c2c(F)cc(F)cc2F)c(Cl)nc2nc(Br)nn12` [Example 75] it is 3.62; for `C=C(C)CN(CC)c1c(-c2c(F)cc(F)cc2F)c(Cl)nc2nc(Br)nn12` [Example 76] it is 4.4. The figure for `CCN(CCOC)c1c(-c2c(F)cc(F)cc2F)c(Cl)nc2nc(Cl)nn12` [Example 77] is 3.61. `C=C(C)CN(CC)c1c(-c2c(F)cc(F)cc2F)c(Cl)nc2nc(Cl)nn12` [Example 78] gave a log.P of 4.4. Compound `COc1nc2nc(Cl)c(-c3c(F)cc(F)cc3OC)c(NC(C)C(F)(F)F)n2n1` (stereo not shown) [Example 80] returned a log.P of 3.18. `FC(F)(F)C1CCN(c2c(-c3ccccc3Cl)c(Cl)nc3nc(Cl)nn23)CC1` [Example 81] returned a log.P of 4.22. The result for `CC1CCN(c2c(-c3ccccc3Cl)c(Cl)nc3nc(Cl)nn23)CC1` [Example 82] reads 4.62; that for `Fc1cc(F)c(-c2c(Cl)nc3nc(Cl)nn3c2N2CCC(F)CC2)c(F)c1` [Example 83], 3.55. The figure for `CN1CCN(c2c(-c3c(F)cc(F)cc3F)c(Cl)nc3nc(Cl)nn23)CC1` [Example 84] is 2.71; for `CC1CCCCN1c1c(-c2c(F)cc(F)cc2F)c(Cl)nc2nc(Cl)nn12` (stereo not shown) [Example 85] it is 4.33; for `C=C(C)CNc1c(-c2c(F)cc(F)cc2F)c(Cl)nc2nc(Cl)nn12` [Example 86] it is 3.37.

The values are drawn from patent US20050222173A1, “Triazolopyrimidines” (priority 2002, published 2005).
